Literature values as cited in patent publication US20130136704A1, “P-MENTHANE-3,8-DIOL ISOMER MIXTURE, COMPOSITION COMPRISING THE SAME, AND PRODUCTS COMPRISING THE MIXTURE OR COMPOSITION” (TAKASAGO INTERNATIONAL CORPORATION, priority 2011, published 2013).

Conditions: Patent Literature 2

Question: For CC1CCC(C(C)(C)O)C(O)C1 (stereo not shown) [p-menthane-3,8-diol], which “concentration of p-menthane-3,8-diol in solution at which it is in a supersaturation state and crystals precipitate” value is on record?
Answer: Its value is at least 60%.
